Assay results: patent publication US12643924B2, “Cardiac-specific targeting-peptide (CTP), compositions, and uses thereof” (University of Pittsburgh—Of the Commonwealth System of …, priority 2018, dated 2026)
Where no end group is shown, it is not given here.

Legend:
H9C2 cells [1] = assay: Alanine scan: percentage of Cy5.5 positive H9C2 cells by FACS; type: cell-based, rat; conditions: percentage of Cy5.5 positive H9C2 cells normalized to non-mutated peptide (SEQ ID NO: 1); Cy5.5-conjugated peptides, 30 minutes at 37° C.
Description: (§1) Variants of SEQ ID NO: 1 in which every amino acid was systematically mutated to alanine were synthesized in the University of Pittsburgh Peptide Synthesis Facility. Each variant was conjugated to the Cyanine5.5 fluorescent dye (Cy5.5). The rat cardiomyocyte cell line H9C2 (ATCC, catalogue #: CRL-1446) was incubated for 30 minutes at 37° C. with Dimethyl sulfoxide (DMSO) as a control, or the alanine peptide variants. Cells were then washed 3 times with PBS, trypsinized and resuspended, stained for live/dead cells, and then FACS sorted for Cy5.5 positive cells.
The percentage of Cy5.5 positive H9C2 cells, normalized to the non-mutated peptide (SEQ ID NO: 1), for each peptide variant is summarized in Table 2 below.

myocardial tissue = assay: Fluorescence intensity in myocardial tissue 15 minutes after injection of fluorescently-labeled CTP variants; type: in vivo; conditions: mice; for fluorescence intensity in myocardial tissue compared to CTP: FIG. 6B
Description: Additionally, fluorescently-labeled CTP variants (CTP, CTP-B, H4A, P2A) or fluorescently-labeled random peptide sequence (RAN) were injected into mice and fluorescence intensity was measured in fixed myocardial tissue. Mice were injected with peptides, and, 15 minutes after injection, heart tissue was dissected, cryosectioned, stained, and analyzed for fluorescence intensity.

H9C2 cells [2] = assay: Fluorescence activated cell sorting of H9C2 cells after 30 min incubation with 10 uM peptide (median Cy5.5); type: cell-based, rat; conditions: for Corrected Median Cy5.5 / Raw Median Cy5.5: H9C2 cells, 30 min incubation, 10 uM peptide, single replicates; for Corrected Median Cy5.5: corrected for peptide fluorescence; for Average Correction: average of corrected median Cy5.5, H9C2 cells, FIG. 1C
Description: as §1

[3] = system: H9C2 cells, MEF cells, 3T3 cells; assay: Transduction of cell lines by Cy5.5 labeled N- and C-terminal CTP variants (FACS); type: cell-based; conditions: across all three cell lines; FIGS. 2A-2D
Description: (§2) FIGS. 2A-2E are a series of bar graphs that show the transduction efficiencies and viability of various cell types incubated with Cy5.5 labeled cardiac-specific targeting peptide variants. […] CTP (Full Length): NH2-APWHLSSQYSRT-COOH (SEQ ID NO: 1); CTP-A: NH2-APWHLS-COOH (SEQ ID NO: 24); CTP-B: NH2-SQYSRT-COOH (CTP6aa; SEQ ID NO: 5); cyclic: cyclized version of the indicated peptide; CTP-Random: random, linear, 12-amino acid peptide (RAN: NH2-STLMKFCYVEQN-COOH ((SEQ ID NO: 26)); DMSO: Dimethyl sulfoxide.
(§3) Solid-phase peptide synthesis were used to synthesize the full-length form (NH2-APWHLSSQYSRT-COOH (SEQ ID NO: 1)), as well as an N-terminus 6 amino acid called CTP-A (NH2-APWHLS-COOH (SEQ ID NO: 24)), or as CTP6aa (NH2-SQYSRT-COOH (SEQ ID NO: 5)) peptides. Full length and CTP6aa were also synthesized in a cyclic forms. A random, linear, 12-amino acid long peptide (RAN: NH2-STLMKFCYVEQN-COOH (SEQ ID NO: 26)) was also synthesized to serve as control. All peptides were fluorescently labeled with Cyanine5.5 (Cy5.5). Isolated, beating neonatal mouse cardiomyocytes (CMC) were incubated with 10 μM of the peptides at 37° C. for 30 minutes, washed extensively with PBS and confocal microscopy performed. […]

H9C2 cells and MEFs = type: cell-based; conditions: compared to full-length peptide and DMSO control; FIG. 2E
Description: as §2, §3

For “AAWHLSSQYSRT (also: Cy5.5 conjugate, site not given here) [P2A, alanine variant of CTP, Cy5.5 conjugated]”, the “% transduction of H9C2 Cells” value (H9C2 cells [1]) was 59.15%, the “fluorescence intensity in myocardial tissue compared to CTP” value (myocardial tissue) was “significantly greater” and the “Corrected Median Cy5.5” value (H9C2 cells [2]; listed as P2A_001) was 9901.8. For the same substance, the “Corrected Median Cy5.5” value (H9C2 cells [2]; listed as P2A_002) was 9298.9, the “Corrected Median Cy5.5” value (H9C2 cells [2]; listed as P2A_003) was 9488.4 and the “Raw Median Cy5.5” value (H9C2 cells [2]; listed as P2A_001) was 9449. For the same substance, the “Raw Median Cy5.5” value (H9C2 cells [2]; listed as P2A_002) was 8834, the “Raw Median Cy5.5” value (H9C2 cells [2]; listed as P2A_003) was 9014 and the “Average Correction” value (H9C2 cells [2]) was 9535.0.

For “APWHLSSQYSRT (also: Cy5.5 label, site not given here) [CTP, 12-amino acid cardiac-specific targeting peptide, tested conjugated to Cy5.5]”, the “% transduction of H9C2 Cells” value (H9C2 cells [1]) was 100%, the “Corrected Median Cy5.5” value (H9C2 cells [2]; listed as CTP_001) was 5652.0 and the “Corrected Median Cy5.5” value (H9C2 cells [2]; listed as CTP_002) was 6028.0. The “Corrected Median Cy5.5” value (H9C2 cells [2]; listed as CTP_003) was 6308.0, the “Raw Median Cy5.5” value (H9C2 cells [2]; listed as CTP_001) was 5652 and the “Raw Median Cy5.5” value (H9C2 cells [2]; listed as CTP_002) was 6028. The “Raw Median Cy5.5” value (H9C2 cells [2]; listed as CTP_003) was 6308 and the “Average Correction” value (H9C2 cells [2]) was 5996.

With “SQYSRT (Description of Artificial Sequence: Cardiac Targeting Peptide (CTP-B)) [linear six C-terminal amino acid cardiac-specific targeting peptide]” the “transduction compared to the full-length peptide” value [3] was “at least as well as the full-length peptide”, the “uptake compared to random peptide sequence and CTP” value (myocardial tissue) was “superior uptake” and the “fluorescence intensity in myocardial tissue compared to CTP” value (myocardial tissue) was “significantly greater”. For the same substance, the “Corrected Median Cy5.5” value (H9C2 cells [2]; listed as CTP-B_001) was 5663.7, the “Corrected Median Cy5.5” value (H9C2 cells [2]; listed as CTP-B_002) was 6469.2 and the “Corrected Median Cy5.5” value (H9C2 cells [2]; listed as CTP-B_003) was 6240.8. The “Raw Median Cy5.5” value (H9C2 cells [2]; listed as CTP-B_001) was 4711, the “Raw Median Cy5.5” value (H9C2 cells [2]; listed as CTP-B_002) was 5381 and the “Raw Median Cy5.5” value (H9C2 cells [2]; listed as CTP-B_003) was 5191. For the same substance, the “Average Correction” value (H9C2 cells [2]) was 6124.6 and the cell viability (H9C2 cells and MEFs) was “did not alter cell viability”.
